According to US7897593B2, “HIV integrase inhibitors” (priority 2006, dated 2011):

How the values were obtained:
HIV-integrase = target: T1, HIV-integrase (Human immunodeficiency virus type 1 group M subtype B, UniProt P12497); assay: HIV-Integrase Inhibition Activity (SPA strand transfer assay); type: biochemical; settings: recombinant integrase, SPA beads, P33 labeled target DNA
T1 construct: Recombinant integrase (0.26 ng) was incubated with the beads
Protocol: HIV-Integrase InhibitionActivity. To evaluate in-vitro activity against HIV-integrase, 5 pmole of biotin labeled substrate DNA was bound to 100 μg of Streptavidin coated PVT SPA beads (Amersham Pharmacia Biotech). Recombinant integrase (0.26 ng) was incubated with the beads for 90 min at 37° C. Unbound enzyme was removed by washing the complex followed by addition of inhibitors and 0.1 fmol of P33 labeled target DNA. The reaction was stopped by adding EDTA to a final concentration of 10 mM. Samples were counted in TopCountNXT (Packard) and the CPM was used as a measure of integration. The reaction condition was as described in A. Engelman and R. Craigie, J. Virol 69, 5908-5911 (1995). The sequences of substrate and target DNA were described in Nucleic Acid Research 22, 1121-1122 (1994). Activity equal to A refers to a compound having IC50=0.001 to 0.01 μM B=0.01-0.1, and C≧0.1 μM respectively.

[1] = system: recombinant NL-Rluc virus; assay: Inhibition of HIV replication; type: cell-based; settings: Human immunodeficiency virus 1, read-out: Antiviral Activity, NL-RLuc virus; three serum conditions described, the one tabulated is not stated

## CN(C)S(=O)(=O)N1CCC2(CC1)OCCn1c2nc(C(=O)NCc2ccc(F)cc2-n2cncn2)c(O)c1=O [Example 1, 1-(N,N-Dimethylsulfamoyl)-N-(4-fluoro-2-(1H-1,2,4-triazol-1-yl)benzyl)-3′-hydroxy-4′-oxo-6′,7′-dihydro-4′H-spiro[piperidine-4,9′-pyrimido[2,1-c][1,4]oxazine]-2′-carboxamide]
HIV-integrase
  IC50: 1 to 10 nM
[1]
  EC50: 1 to 10 nM

## CN(C)S(=O)(=O)N1CCC2(CC1)OCCn1c2nc(C(=O)NCc2ccc(F)cc2)c(O)c1=O [Example 2]
HIV-integrase
  IC50: 1 to 10 nM
[1]
  EC50: 1 to 10 nM

## COC(=O)N1CCC2(CC1)OCCn1c2nc(C(=O)NCc2ccc(F)cc2-n2cncn2)c(O)c1=O [Example 3]
HIV-integrase
  IC50: 1 to 10 nM
[1]
  EC50: 1 to 10 nM

## COC(=O)N1CCC2(CC1)OCCn1c2nc(C(=O)NCc2ccc(F)cc2)c(O)c1=O [Example 4]
HIV-integrase
  IC50: 1 to 10 nM
[1]
  EC50: 1 to 10 nM

## CN(C)C(=O)N1CCC2(CC1)OCCn1c2nc(C(=O)NCc2ccc(F)cc2-n2cncn2)c(O)c1=O [Example 5]
HIV-integrase
  IC50: 1 to 10 nM
[1]
  EC50: 1 to 10 nM

## CN(C)C(=O)N1CCC2(CC1)OCCn1c2nc(C(=O)NCc2ccc(F)cc2)c(O)c1=O [Example 6]
HIV-integrase
  IC50: 1 to 10 nM
[1]
  EC50: 1 to 10 nM

## CS(=O)(=O)N1CCC2(CC1)OCCn1c2nc(C(=O)NCc2ccc(F)cc2-n2cncn2)c(O)c1=O [Example 7]
HIV-integrase
  IC50: 1 to 10 nM
[1]
  EC50: 1 to 10 nM

## CS(=O)(=O)N1CCC2(CC1)OCCn1c2nc(C(=O)NCc2ccc(F)cc2)c(O)c1=O [Example 8]
HIV-integrase
  IC50: 1 to 10 nM
[1]
  EC50: 1 to 10 nM

## O=C(NCc1ccc(F)cc1-n1cncn1)c1nc2n(c(=O)c1O)CCOC21CCN(C(=O)c2ccccc2)CC1 [Example 9]
HIV-integrase
  IC50: 10 to 100 nM
[1]
  EC50: 1 to 10 nM

## O=C(NCc1ccc(F)cc1)c1nc2n(c(=O)c1O)CCOC21CCN(C(=O)c2ccccc2)CC1 [Example 10]
HIV-integrase
  IC50: 10 to 100 nM
[1]
  EC50: 1 to 10 nM

## Cc1ccc(S(=O)(=O)N2CCC3(CC2)OCCn2c3nc(C(=O)NCc3ccc(F)cc3-n3cncn3)c(O)c2=O)cc1 [Example 11]
HIV-integrase
  IC50: 1 to 10 nM
[1]
  EC50: 1 to 10 nM

## Cc1ccc(S(=O)(=O)N2CCC3(CC2)OCCn2c3nc(C(=O)NCc3ccc(F)cc3)c(O)c2=O)cc1 [Example 12]
HIV-integrase
  IC50: 10 to 100 nM
[1]
  EC50: 1 to 10 nM

## Cc1ccc(S(=O)(=O)N2CCC3(CC2)OCCn2c3nc(C(=O)NC(C)c3ccc(F)cc3)c(O)c2=O)cc1 (stereo not shown) [Example 13]
HIV-integrase
  IC50: 10 to 100 nM
[1]
  EC50: 10 to 100 nM

## Cc1ccc(S(=O)(=O)N2CCC3(CC2)OCCn2c3nc(C(=O)NCc3ccc(F)cc3S(=O)(=O)N3CCOCC3)c(O)c2=O)cc1 [Example 14]
HIV-integrase
  IC50: 10 to 100 nM
[1]
  EC50: 1 to 10 nM

## Cc1ccc(S(=O)(=O)N2CCC3(CC2)OCCn2c3nc(C(=O)NCc3ccc(F)cc3-n3cnc(C)n3)c(O)c2=O)cc1 [Example 15]
HIV-integrase
  IC50: 10 to 100 nM
[1]
  EC50: 1 to 10 nM

## Cc1ccc(S(=O)(=O)N2CCC3(CC2)OCCn2c3nc(C(=O)NCc3ccc(F)cc3-n3ncnc3C)c(O)c2=O)cc1 [Example 16]
HIV-integrase
  IC50: 10 to 100 nM
[1]
  EC50: 1 to 10 nM

## Cc1ccc(S(=O)(=O)N2CCC3(CC2)OCCn2c3nc(C(=O)NCc3ccc(F)cc3-n3nc(C)nc3C)c(O)c2=O)cc1 [Example 17]
HIV-integrase
  IC50: 10 to 100 nM
[1]
  EC50: 1 to 10 nM

## Cc1ccc(F)cc1S(=O)(=O)N1CCC2(CC1)OCCn1c2nc(C(=O)NCc2ccc(F)cc2)c(O)c1=O [Example 18]
HIV-integrase
  IC50: 1 to 10 nM
[1]
  EC50: 1 to 10 nM

## Cc1ccc(F)cc1S(=O)(=O)N1CCC2(CC1)OCCn1c2nc(C(=O)NCc2ccc(F)cc2-n2cncn2)c(O)c1=O [Example 19]
HIV-integrase
  IC50: 1 to 10 nM
[1]
  EC50: 1 to 10 nM

## Cc1ncn(-c2cc(F)ccc2CNC(=O)c2nc3n(c(=O)c2O)CCOC32CCN(S(=O)(=O)c3cc(F)ccc3C)CC2)n1 [Example 20]
HIV-integrase
  IC50: 1 to 10 nM
[1]
  EC50: 1 to 10 nM

## Cc1ccc(F)cc1S(=O)(=O)N1CCC2(CC1)OCCn1c2nc(C(=O)NCc2ccc(F)cc2-n2ncnc2C)c(O)c1=O [Example 21]
HIV-integrase
  IC50: 10 to 100 nM
[1]
  EC50: 1 to 10 nM

## O=C(NCc1ccc(F)cc1)c1nc2n(c(=O)c1O)CCOC21CCN(C(=O)OCc2ccccc2)CC1 [Example 22]
HIV-integrase
  IC50: 1 to 10 nM
[1]
  EC50: 1 to 10 nM

## Cc1ncnn1-c1cc(F)ccc1CNC(=O)c1nc2n(c(=O)c1O)CCOC21CCN(C(=O)OCc2ccccc2)CC1 [Example 23]
HIV-integrase
  IC50: 10 to 100 nM
[1]
  EC50: 1 to 10 nM

## CNC(=O)c1nc2n(c(=O)c1O)CCOC21CCN(S(=O)(=O)c2cc(F)ccc2C)CC1 [Example 25, 1-(5-Fluoro-2-methylphenylsulfonyl)-3′-hydroxy-N-methyl-4′-oxo-6′,7′-dihydro-4′H-spiro[piperidine-4,9′-pyrimido[2,1-c][1,4]oxazine]-2′-carboxamide]
HIV-integrase
  IC50: ≥ 100 nM
[1]
  EC50: > 100 nM

## COC(=O)C(=O)N1CCC2(CC1)OCCn1c2nc(C(=O)NCc2ccc(F)cc2-n2ncnc2C)c(O)c1=O [Example 26, Methyl 2-(2′-(4-fluoro-2-(5-methyl-1H-1,2,4-triazol-1-yl)benzylcarbamoyl)-3′-hydroxy-4′-oxo-6′,7′-dihydro-4′H-spiro[piperidine-4,9′-pyrimido[2,1-c][1,4]oxazine]-1-yl)-2-oxoacetate]
HIV-integrase
  IC50: 10 to 100 nM
[1]
  EC50: 10 to 100 nM

## Cc1ncnn1-c1cc(F)ccc1CNC(=O)c1nc2n(c(=O)c1O)CCOC21CCN(C(=O)C(=O)N(C)C)CC1 [Example 27, 1-(2-(Dimethylamino)-2-oxoacetyl)-N-(4-fluoro-2-(5-methyl-1H-1,2,4-triazol-1-yl)benzyl)-3′-hydroxy-4′-oxo-6′,7′-dihydro-4′H-spiro[piperidine-4,9′-pyrimido[2,1-c][1,4]oxazine]-2′-carboxamide]
HIV-integrase
  IC50: 10 to 100 nM
[1]
  EC50: > 100 nM

## COC(=O)C(=O)N1CCC2(CC1)OCCn1c2nc(C(=O)NCc2ccc(F)cc2)c(O)c1=O [Example 28, Methyl 2-(2′-(4-fluorobenzylcarbamoyl)-3′-hydroxy-4′-oxo-6′,7′-dihydro-4′H-spiro[piperidine-4,9′-pyrimido[2,1-c][1,4]oxazine]-1-yl)-2-oxoacetate]
HIV-integrase
  IC50: 1 to 10 nM
[1]
  EC50: 10 to 100 nM

## O=C(O)C(=O)N1CCC2(CC1)OCCn1c2nc(C(=O)NCc2ccc(F)cc2)c(O)c1=O [Example 29, 2-(2′-(4-Fluorobenzylcarbamoyl)-3′-hydroxy-4′-oxo-6′,7′-dihydro-4′H-spiro[piperidine-4,9′-pyrimido[2,1-c][1,4]oxazine]-1-yl)-2-oxoacetic acid]
HIV-integrase
  IC50: 1 to 10 nM
[1]
  EC50: > 100 nM

## CN(C)C(=O)C(=O)N1CCC2(CC1)OCCn1c2nc(C(=O)NCc2ccc(F)cc2)c(O)c1=O [Example 30, 1-(2-(Dimethylamino)-2-oxoacetyl)-N-(4-fluorobenzyl)-3′-hydroxy-4′-oxo-6′,7′-dihydro-4′H-spiro[piperidine-4,9′-pyrimido[2,1-c][1,4]oxazine]-2′-carboxamide]
HIV-integrase
  IC50: 1 to 10 nM
[1]
  EC50: 10 to 100 nM

## CCOC(=O)N1CCC2(CC1)OCCn1c2nc(C(=O)NCc2ccc(F)cc2)c(O)c1=O [Example 31, Ethyl 2′-(4-fluorobenzylcarbamoyl)-3′-hydroxy-4′-oxo-6′,7′-dihydro-4′H-spiro[piperidine-4,9′-pyrimido[2,1-c][1,4]oxazine]-1-carboxylate]
HIV-integrase
  IC50: 1 to 10 nM
[1]
  EC50: 1 to 10 nM

## Cc1ncn(-c2cc(F)ccc2CNC(=O)c2nc3n(c(=O)c2O)CCOC32CCN(C(=O)C(=O)N(C)C)CC2)n1 [Example 32, 1-(2-(Dimethylamino)-2-oxoacetyl)-N-(4-fluoro-2-(3-methyl-1H-1,2,4-triazol-1-yl)benzyl)-3′-hydroxy-4′-oxo-6′,7′-dihydro-4′H-spiro[piperidine-4,9′-pyrimido[2,1-c][1,4]oxazine]-2′-carboxamide]
HIV-integrase
  IC50: 10 to 100 nM
[1]
  EC50: > 100 nM

## CCOC(=O)N1CCC2(CC1)OCCn1c2nc(C(=O)NCc2ccc(F)cc2-n2cnc(C)n2)c(O)c1=O [Example 33, Ethyl 2′-(4-fluoro-2-(3-methyl-1H-1,2,4-triazol-1-yl)benzylcarbamoyl)-3′-hydroxy-4′-oxo-6′,7′-dihydro-4′H-spiro[piperidine-4,9′-pyrimido[2,1-c][1,4]oxazine]-1-carboxylate]
HIV-integrase
  IC50: 1 to 10 nM
[1]
  EC50: 1 to 10 nM

## O=C(NCc1ccc(F)cc1)c1nc2n(c(=O)c1O)CCOC21CCN(C(=O)OCc2ccccc2)C1 (stereo not shown) [Example 36, Benzyl 2-(4-fluorobenzylcarbamoyl)-3-hydroxy-4-oxo-6,7-dihydro-4H-spiro[pyrimido[2,1-c][1,4]oxazine-9,3′-pyrrolidine]-1′-carboxylate]
HIV-integrase
  IC50: 1 to 10 nM
[1]
  EC50: 1 to 10 nM

## Cc1ncnn1-c1cc(F)ccc1CNC(=O)c1nc2n(c(=O)c1O)CCOC21CCN(C(=O)OCc2ccccc2)C1 (stereo not shown) [Example 37, Benzyl 2-(4-fluoro-2-(5-methyl-1H-1,2,4-triazol-1-yl)benzylcarbamoyl)-3-hydroxy-4-oxo-6,7-dihydro-4H-spiro[pyrimido[2,1-c][1,4]oxazine-9,3′-pyrrolidine]-1′-carboxylate]
HIV-integrase
  IC50: 10 to 100 nM
[1]
  EC50: 10 to 100 nM

## CS(=O)(=O)N1CCC2(C1)OCCn1c2nc(C(=O)NCc2ccc(F)cc2)c(O)c1=O (stereo not shown) [Example 38, N-(4-Fluorobenzyl)-3-hydroxy-1′-(methylsulfonyl)-4-oxo-6,7-dihydro-4H-spiro[pyrimido[2,1-c][1,4]oxazine-9,3′-pyrrolidine]-2-carboxamide]
HIV-integrase
  IC50: 1 to 10 nM
[1]
  EC50: 10 to 100 nM
